Test results as given in PubChem BioAssay (NCI).
“And” between values parts separate entries of the source, which are not always exact repeats. Equal entries are not always repeated.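 Step 1: Grow cells in 96-well plates. Step 2: Expose to compound for 48 hours at 5 concentrations. Step 3: Interpolate endpoints linearly; if unreached, use highest concentration. GI50 is the concentration that inhibits growth by half. TGI denotes the concentration required for complete inhibition of growth.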

Legend:
Assay in all cases: growth of human tumour cells (NCI), 48 h
[1] = test system: KM12 colon
[2] = test system: CCRF-CEM leukemia
[3] = test system: RPMI-8226 leukemia
[4] = test system: SK-MEL-5 melanoma
[5] = test system: SR leukemia
[6] = test system: SK-MEL-2 melanoma
[7] = test system: ACHN renal
[8] = test system: NCI-H226 lung
[9] = test system: NCI/ADR-RES ovarian
[10] = test system: M14 melanoma

SMILES: Cn1cccc1-c1cc(-c2ccc(Br)cc2)nc(N)c1C#N
- GI50 [1]: > 100 µM
- TGI [1]: > 100 µM
- GI50 [2]: > 100 µM
- TGI [2]: > 100 µM
- GI50 [3]: 78.7 µM
- TGI [3]: > 100 µM
- GI50 [4]: > 100 µM
- TGI [4]: > 100 µM
- GI50 [5]: 3.42 µM
- TGI [5]: 20.4 µM
- GI50 [6]: > 100 µM
- TGI [6]: > 100 µM
- GI50 [7]: > 100 µM
- TGI [7]: > 100 µM
- GI50 [8]: 63.8 µM
- TGI [8]: > 100 µM
- GI50 [9]: > 100 µM
- TGI [9]: > 100 µM

SMILES: CC1=C(C)C(=O)C(C(C)C2=C(C)C(=O)C(C)=C(C)C2=O)=C(C)C1=O
- GI50 [1]: 40 µM
- TGI [1]: > 100 µM
- GI50 [2]: 20.1 µM
- TGI [2]: 50.7 µM
- GI50 [3]: 7.09 µM
- TGI [3]: 31.6 µM
- GI50 [4]: 12.5 µM
- TGI [4]: 64.6 µM
- GI50 [5]: 7.35 µM
- TGI [5]: 31.7 µM
- GI50 [6]: 33.8 µM
- TGI [6]: > 100 µM
- GI50 [7]: 24.5 µM
- TGI [7]: > 100 µM
- GI50 [8]: 58.3 µM
- TGI [8]: > 100 µM
- GI50 [9]: 17.9 µM
- TGI [9]: 52 µM
- GI50 [10]: 53.7 µM
- TGI [10]: > 100 µM

SMILES: Cc1nc2cc(O)c(O)cc2cc1Oc1ccc(NC(=O)Nc2ccc(Cl)c(Cl)c2)cc1
- GI50 [1]: 9.64 µM
- TGI [1]: 32 µM
- GI50 [2]: 6.19 µM
- TGI [2]: 21.8 µM
- GI50 [3]: 7.62 µM
- TGI [3]: 20.7 µM
- GI50 [4]: 5.94 µM
- TGI [4]: 14.2 µM
- GI50 [5]: 1.56 µM
- TGI [5]: 12.3 µM
- GI50 [6]: 8.83 µM
- TGI [6]: 21.1 µM
- GI50 [7]: 3.37 µM
- TGI [7]: 17.9 µM
- GI50 [8]: 11.8 µM
- TGI [8]: > 32.5 µM
- GI50 [9]: 8.74 µM
- TGI [9]: > 32.5 µM
- GI50 [10]: 5.97 µM
- TGI [10]: 13.8 µM

SMILES: Cn1c(=O)c(F)c(Nc2ccc(I)cc2F)c2c(=O)n(C[C@@H](O)CO)cnc21
- GI50 [1]: 0.0237 µM and 0.0319 µM
- TGI [1]: 39.1 µM and > 4.11 µM
- TGI [2]: 52 µM and > 7.18 µM
- GI50 [3]: 9.12 µM
- TGI [3]: > 91.8 µM
- GI50 [4]: < 0.0268 µM and 0.0448 µM
- TGI [4]: 17.9 µM and > 3.46 µM
- GI50 [5]: 5.04 µM
- TGI [5]: 36.4 µM and > 10 µM
- GI50 [6]: < 0.01 µM and 0.00295 µM
- TGI [6]: < 0.0252 µM and 0.0277 µM
- GI50 [7]: 2.17 µM and 0.48 µM
- TGI [7]: 40.8 µM and > 6.49 µM
- GI50 [9]: 12.7 µM and > 2.46 µM
- TGI [9]: > 100 µM
- GI50 [10]: < 0.01 µM and 0.00175 µM
- TGI [10]: 0.0211 µM

SMILES: CCOC(=O)C(=Cc1ccccc1Br)C(=O)OCC
- TGI [1]: 4.06 µM
- TGI [2]: > 100 µM
- TGI [3]: > 100 µM
- TGI [4]: 3.85 µM
- TGI [5]: 0.723 µM
- TGI [6]: 5.31 µM
- TGI [7]: 6.01 µM
- TGI [8]: 8.99 µM
- TGI [9]: > 100 µM
- TGI [10]: 2.48 µM

SMILES: CC(C)[C@]12O[C@H]1[C@@H]1O[C@]13[C@]1(O[C@H]1C[C@H]1c4c(C(=O)c5ccccc5)oc(OC(=O)c5ccccc5)c4CC[C@@]13C)[C@@H]2O
- GI50 [1]: 0.226 µM
- TGI [1]: 3.78 µM
- GI50 [2]: 0.0429 µM
- GI50 [3]: < 0.0148 µM
- TGI [3]: 1.06 µM
- GI50 [5]: 0.0303 µM
- GI50 [6]: 0.0252 µM
- TGI [6]: 0.0781 µM
- GI50 [7]: 0.0174 µM
- TGI [7]: 20.7 µM
- GI50 [8]: 0.025 µM
- TGI [8]: 0.554 µM
- GI50 [9]: 0.0418 µM
- TGI [9]: 3.42 µM
- GI50 [10]: 0.0236 µM
- TGI [10]: 0.0688 µM

SMILES: CC(O)CN(CCN(CC(C)O)CC(C)O)CC(C)O.O=[N+]([O-])O.[Cu+2] (stereo unspecified)
- GI50 [1]: > 100 µM
- TGI [1]: > 100 µM
- GI50 [2]: > 100 µM
- TGI [2]: > 100 µM
- GI50 [3]: > 100 µM
- TGI [3]: > 100 µM
- GI50 [4]: 24.3 µM
- TGI [4]: 58.2 µM
- GI50 [5]: > 100 µM
- TGI [5]: > 100 µM
- GI50 [6]: > 100 µM
- TGI [6]: > 100 µM
- GI50 [7]: > 100 µM
- TGI [7]: > 100 µM
- GI50 [8]: > 100 µM
- TGI [8]: > 100 µM
- GI50 [9]: > 100 µM
- TGI [9]: > 100 µM
- GI50 [10]: > 100 µM
- TGI [10]: > 100 µM
